18 compounds from patent publication US20260325533A1, “CDK INHIBITOR COMPOUNDS” (ALEKSIA THERAPEUTICS, INC., priority 2023, published 2026) can be followed below.

Format in all cases: biochemical
The target in one assay is CDK1/CCNB1 (Homo sapiens, UniProt P06493). The assay is described as follows: CDK1 homogeneous time-resolved fluorescence (HTRF) kinase assay. Conditions: CDK1/CCNB. The procedure, abridged:
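High-ATP (1 mM) HTRF assay with 0.5 nM CDK1/cyclin B1 and 50 nM ULight-4E-BP1 (Thr37/46) substrate, 60 min at 23 °C after 20-min compound preincubation. IC50 values come from dose-response curves.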

The target in another assay is CDK6/CCND1 (Homo sapiens, UniProt Q00534). The experiment in a line: CDK6 homogeneous time-resolved fluorescence (HTRF) kinase assay. The settings on record: CDK6/CCND. An outline of the steps:
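Assay conditions: HEPES buffer containing 10 mM MgCl2, 1 mM EGTA, 2 mM DTT, 0.01% Tween 20; 1 nM CDK6/CCND1, 50 nM peptide substrate, 1 mM ATP. Detection after 60 min reaction used 2 nM europium antibody with 340 nm excitation. Potency fitted from half-log series, 11 points.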
A general note: TR-FRET usually uses a lanthanide donor and a delayed reading to cut background.

The target of the next assay is CDK4/CCND3 (Homo sapiens, UniProt P11802). The assay is described as follows: CDK4 homogeneous time-resolved fluorescence (HTRF) kinase assay. Conditions: CDK4/CCND. An outline of the steps:
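IC50s derive from Lance 665 nm or 665/615 nm signals in 11-point, half-log dose series (top 10 μM, 1% DMSO). The enzyme, 1.5 nM CDK4/CCND3, phosphorylates 50 nM ULight-4E-BP1 peptide with 1 mM ATP over 60 min at 23 °C.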

The target of another assay is CDK2/CCNE1 (Homo sapiens, UniProt P24941). The assay is described as follows: CDK2 homogeneous time-resolved fluorescence (HTRF) kinase assay. Conditions: CDK2/CCNE. The procedure, abridged: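 An HTRF format measures CDK2/CCNE1 (3 nM) phosphorylating a 4E-BP1 Thr37/46 peptide at high (1 mM) ATP. Reactions run one hour at 23 °C, then EDTA-quenched and probed with Eu-labelled phospho-specific antibody.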

[1] abbreviates: >250 nM marked x, read-out: CDK1/CCNB IC50 >250 nM.
[2] abbreviates: >250 nM marked x, read-out: CDK6/CCND IC50 >250 nM.
The mark [3] stands for this setting: >250 nM marked x, read-out: CDK4/CCND IC50 >250 nM.
The mark [4] stands for this setting: 25-250 nM marked x, read-out: CDK2/CCNE IC50 25-250 nM.
[5] abbreviates: >250 nM marked x, read-out: CDK2/CCNE IC50 >250 nM.
[6] abbreviates: 25-250 nM marked x, read-out: CDK6/CCND IC50 25-250 nM.
The mark [7] stands for this setting: 25-250 nM marked x, read-out: CDK4/CCND IC50 25-250 nM.
[8] abbreviates: <25 nM, read-out: CDK2/CCNE IC50 <25 nM.

Like-named read-outs stand apart in the source and are kept apart here. Some results are limits rather than exact numbers.

Chain of CDK4/CCND3 (P11802 whole entry): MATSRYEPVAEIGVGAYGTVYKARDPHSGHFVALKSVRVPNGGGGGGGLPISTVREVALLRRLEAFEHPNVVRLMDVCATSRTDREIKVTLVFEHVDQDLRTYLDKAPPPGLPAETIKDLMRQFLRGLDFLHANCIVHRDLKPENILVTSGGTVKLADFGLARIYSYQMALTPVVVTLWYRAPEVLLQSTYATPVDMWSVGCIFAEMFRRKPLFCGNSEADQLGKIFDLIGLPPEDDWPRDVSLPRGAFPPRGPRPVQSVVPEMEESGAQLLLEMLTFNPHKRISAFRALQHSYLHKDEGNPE
Chain of CDK4/CCND3 (P30281 whole entry partner): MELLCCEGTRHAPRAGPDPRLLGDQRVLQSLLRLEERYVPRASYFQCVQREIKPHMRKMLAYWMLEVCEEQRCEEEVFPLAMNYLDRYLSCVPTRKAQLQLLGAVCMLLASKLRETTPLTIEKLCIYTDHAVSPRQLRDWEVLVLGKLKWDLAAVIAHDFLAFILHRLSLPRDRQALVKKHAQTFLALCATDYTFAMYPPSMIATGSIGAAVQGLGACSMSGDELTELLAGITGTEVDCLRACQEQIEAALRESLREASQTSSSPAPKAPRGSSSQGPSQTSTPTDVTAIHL
Chain of CDK1/CCNB1 (P06493 whole entry): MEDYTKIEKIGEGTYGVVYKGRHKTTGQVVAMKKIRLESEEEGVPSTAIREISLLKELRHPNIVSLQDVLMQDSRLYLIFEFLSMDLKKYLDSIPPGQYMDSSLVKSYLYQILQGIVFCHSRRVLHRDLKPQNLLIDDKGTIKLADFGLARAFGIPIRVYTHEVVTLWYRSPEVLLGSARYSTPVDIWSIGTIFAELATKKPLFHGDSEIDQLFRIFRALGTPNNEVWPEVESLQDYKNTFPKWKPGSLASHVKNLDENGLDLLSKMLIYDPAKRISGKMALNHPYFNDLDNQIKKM
Chain of CDK1/CCNB1 (P14635 whole entry partner): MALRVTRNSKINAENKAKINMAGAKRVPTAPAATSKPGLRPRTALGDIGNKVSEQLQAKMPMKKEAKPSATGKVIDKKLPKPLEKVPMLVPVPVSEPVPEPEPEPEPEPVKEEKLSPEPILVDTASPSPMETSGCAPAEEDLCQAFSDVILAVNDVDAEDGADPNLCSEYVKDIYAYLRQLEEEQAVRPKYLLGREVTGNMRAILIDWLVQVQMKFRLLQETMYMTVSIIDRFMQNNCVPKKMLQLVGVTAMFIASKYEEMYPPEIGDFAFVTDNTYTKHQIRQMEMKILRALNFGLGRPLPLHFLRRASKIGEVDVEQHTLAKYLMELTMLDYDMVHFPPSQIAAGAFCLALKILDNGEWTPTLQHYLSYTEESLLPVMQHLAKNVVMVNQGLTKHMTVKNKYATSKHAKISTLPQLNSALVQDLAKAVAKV
Chain of CDK6/CCND1 (Q00534 whole entry): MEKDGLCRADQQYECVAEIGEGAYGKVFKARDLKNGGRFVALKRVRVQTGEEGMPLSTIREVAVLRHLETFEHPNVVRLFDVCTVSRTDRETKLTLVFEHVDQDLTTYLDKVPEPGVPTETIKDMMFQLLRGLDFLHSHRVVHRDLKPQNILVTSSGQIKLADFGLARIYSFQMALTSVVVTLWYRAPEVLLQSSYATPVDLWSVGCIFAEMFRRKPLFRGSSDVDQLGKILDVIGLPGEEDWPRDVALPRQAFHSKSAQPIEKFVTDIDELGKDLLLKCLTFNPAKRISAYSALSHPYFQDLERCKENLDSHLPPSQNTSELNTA
Chain of CDK6/CCND1 (P24385 whole entry partner): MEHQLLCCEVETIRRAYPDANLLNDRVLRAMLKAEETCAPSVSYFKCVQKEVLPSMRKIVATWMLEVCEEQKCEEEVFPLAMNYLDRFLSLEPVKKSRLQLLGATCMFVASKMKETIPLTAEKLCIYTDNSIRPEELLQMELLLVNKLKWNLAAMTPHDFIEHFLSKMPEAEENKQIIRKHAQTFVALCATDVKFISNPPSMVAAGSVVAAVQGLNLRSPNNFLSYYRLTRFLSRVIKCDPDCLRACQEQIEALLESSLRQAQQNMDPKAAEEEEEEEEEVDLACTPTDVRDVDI

As for `C=CCNC(=O)[C@H]1CC[C@H](c2nccc3cnc(Nc4ccc(S(C)(=O)=O)cc4)cc32)CC1` [Ex 224, (1r,4r)-N-allyl-4-(7-((4-(methylsulfonyl)phenyl)amino)-2,6-naphthyridin-1-yl)cyclohexane-1-carboxamide], the IC50 was over 250 nM at CDK1/CCNB1 (setting [1]), over 250 nM at CDK6/CCND1 (setting [2]), over 250 nM at CDK4/CCND3 (setting [3]) and 25 to 250 nM at CDK2/CCNE1 (setting [4]).
For the compound `CN(C)C(=O)[C@H]1CC[C@H](c2nccc3cnc(Nc4ccc(S(C)(=O)=O)cc4)cc32)CC1` [Ex 225, (1r,4r)-N,N-dimethyl-4-(7-((4-(methylsulfonyl)phenyl)amino)-2,6-naphthyridin-1-yl)cyclohexane-1-carboxamide], the IC50 at CDK1/CCNB1 (setting [1]), on CDK6/CCND1 (setting [2]), at CDK4/CCND3 (setting [3]) and at CDK2/CCNE1 (setting [5]) was over 250 nM throughout.
With `CS(=O)(=O)c1ccc(Nc2cc3c(ccnc3[C@H]3CC[C@H](C(=O)NC4CCOCC4)CC3)cn2)cc1` [Ex 226, (1r,4r)-4-(7-((4-(methylsulfonyl)phenyl)amino)-2,6-naphthyridin-1-yl)-N-(tetrahydro-2H-pyran-4-yl)cyclohexane-1-carboxamide], the IC50 at CDK1/CCNB1 (setting [1]), on CDK6/CCND1 (setting [2]), on CDK4/CCND3 (setting [3]) and on CDK2/CCNE1 (setting [5]) was over 250 nM each time.
As for `CN1CCN(C(=O)[C@H]2CC[C@H](c3nccc4cnc(Nc5ccc(S(C)(=O)=O)cc5)cc43)CC2)CC1` [Ex 227, (4-methylpiperazin-1-yl)((1r,4r)-4-(7-((4-(methylsulfonyl)phenyl)amino)-2,6-naphthyridin-1-yl)cyclohexyl)methanone], the IC50 at CDK1/CCNB1 (setting [1]), on CDK6/CCND1 (setting [2]), on CDK4/CCND3 (setting [3]) and on CDK2/CCNE1 (setting [5]) was over 250 nM in each case.
For `CS(=O)(=O)c1ccc(Nc2cc3c(ccnc3[C@H]3CC[C@H](C(=O)N4CCSCC4)CC3)cn2)cc1` [Ex 228, ((1r,4r)-4-(7-((4-(methylsulfonyl)phenyl)amino)-2,6-naphthyridin-1-yl)cyclohexyl)(thiomorpholino)methanone], the IC50 at CDK1/CCNB1 (setting [1]), on CDK6/CCND1 (setting [2]), on CDK4/CCND3 (setting [3]) and on CDK2/CCNE1 (setting [5]) was over 250 nM each time.
For the compound `C=CS(=O)(=O)c1ccc(Nc2cc3c(-c4ccc5cn[nH]c5c4)nccc3cn2)cc1` [Ex 241, 5-(1H-indazol-6-yl)-N-(4-(vinylsulfonyl)phenyl)-2,6-naphthyridin-3-amine], the IC50 at CDK1/CCNB1 (setting [1]) was over 250 nM; at CDK6/CCND1 (setting [6]), 25 to 250 nM; on CDK4/CCND3 (setting [3]) it was over 250 nM; on CDK2/CCNE1 (setting [4]) it was 25 to 250 nM.
In the case of `Cc1c(-c2nccc3cnc(Nc4ccc(S(C)(=O)=O)cc4)cc23)ccc2c1cnn2C1CCN(C)CC1` [Ex 242, 5-(4-methyl-1-(1-methylpiperidin-4-yl)-1H-indazol-5-yl)-N-(4-(methylsulfonyl)phenyl)-2,6-naphthyridin-3-amine], the IC50 at CDK1/CCNB1 (setting [1]) was over 250 nM; on CDK6/CCND1 (setting [2]), over 250 nM; on CDK4/CCND3 (setting [3]) it was over 250 nM; at CDK2/CCNE1 (setting [4]), 25 to 250 nM.
On to `Cc1c(-c2nccc3cnc(Nc4ccc(S(C)(=O)=O)cc4)cc23)ccc2c1cnn2CC1CN(C)C1` [Ex 243, 5-(4-methyl-1-((1-methylazetidin-3-yl)methyl)-1H-indazol-5-yl)-N-(4-(methylsulfonyl)phenyl)-2,6-naphthyridin-3-amine], for which the IC50 at CDK1/CCNB1 (setting [1]) is over 250 nM; at CDK6/CCND1 (setting [6]), 25 to 250 nM; on CDK4/CCND3 (setting [7]), 25 to 250 nM; at CDK2/CCNE1 (setting [4]), 25 to 250 nM.
As to `CC(C)(C)c1nccc2cnc(Nc3ccc(S(C)(=O)=O)cc3)cc12` [Ex 244, 5-(tert-butyl)-N-(4-(methylsulfonyl)phenyl)-2,6-naphthyridin-3-amine], the IC50 on CDK1/CCNB1 (setting [1]) is over 250 nM; on CDK6/CCND1 (setting [6]) it was 25 to 250 nM; at CDK4/CCND3 (setting [3]), over 250 nM; on CDK2/CCNE1 (setting [4]), 25 to 250 nM.
On to `C=CS(=O)(=O)c1ccc(Nc2cc3c(-c4ccc5[nH]ncc5c4C)nccc3cn2)cc1` [Ex 245, 5-(4-methyl-1H-indazol-5-yl)-N-(4-(vinylsulfonyl)phenyl)-2,6-naphthyridin-3-amine], for which the IC50 at CDK1/CCNB1 (setting [1]) was over 250 nM; on CDK6/CCND1 (setting [2]), over 250 nM; on CDK4/CCND3 (setting [3]), over 250 nM; at CDK2/CCNE1 (setting [4]) it was 25 to 250 nM.
On to `CC(=O)N[C@H]1CC[C@H](C#Cc2nccc3cnc(Nc4ccc(S(C)(=O)=O)cc4)cc23)CC1` [Ex 246, N-((1r,4r)-4-((7-((4-(methylsulfonyl)phenyl)amino)-2,6-naphthyridin-1-yl)ethynyl)cyclohexyl)acetamide], for which the IC50 on CDK1/CCNB1 (setting [1]) was over 250 nM; at CDK6/CCND1 (setting [6]) it was 25 to 250 nM; on CDK4/CCND3 (setting [7]) it was 25 to 250 nM; at CDK2/CCNE1 (setting [4]) it was 25 to 250 nM.
As for `CS(=O)(=O)c1ccc(Nc2cc3c(C#C[C@H]4CC[C@H](N)CC4)nccc3cn2)cc1` [Ex 247, 5-(((1r,4r)-4-aminocyclohexyl)ethynyl)-N-(4-(methylsulfonyl)phenyl)-2,6-naphthyridin-3-amine], the IC50 on CDK1/CCNB1 (setting [1]) was over 250 nM; on CDK6/CCND1 (setting [6]), 25 to 250 nM; on CDK4/CCND3 (setting [7]) it was 25 to 250 nM; at CDK2/CCNE1 (setting [4]), 25 to 250 nM.
For `CS(=O)(=O)c1ccc(Nc2cc3c(N4CC5(CN(c6ccc(C#N)cc6)C5)C4)nccc3cn2)cc1` [Ex 248, 4-(6-(7-((4-(methylsulfonyl)phenyl)amino)-2,6-naphthyridin-1-yl)-2,6-diazaspiro[3.3]heptan-2-yl)benzonitrile], the IC50 at CDK1/CCNB1 (setting [1]), on CDK6/CCND1 (setting [2]), on CDK4/CCND3 (setting [3]) and at CDK2/CCNE1 (setting [5]) was over 250 nM in each case.
Take `CN(C)C/C=C/S(=O)(=O)c1ccc(Nc2cc3c(N4CCC(C#N)CC4)nccc3cn2)cc1` [Ex 249, (E)-1-(7-((4-((3-(dimethylamino)prop-1-en-1-yl)sulfonyl)phenyl)amino)-2,6-naphthyridin-1-yl)piperidine-4-carbonitrile]: the IC50 on CDK1/CCNB1 (setting [1]) was over 250 nM; at CDK6/CCND1 (setting [2]) it was over 250 nM; at CDK4/CCND3 (setting [7]), 25 to 250 nM; at CDK2/CCNE1 (setting [5]) it was over 250 nM.
Turning to `Cc1c(-c2nccc3cnc(Nc4ccc(S(C)(=O)=O)cc4)cc23)ccc2nn(CC(N)=O)cc12` [Ex 250, 2-(4-methyl-5-(7-((4-(methylsulfonyl)phenyl)amino)-2,6-naphthyridin-1-yl)-2H-indazol-2-yl)acetamide], the IC50 at CDK1/CCNB1 (setting [1]) is over 250 nM; at CDK6/CCND1 (setting [6]) it was 25 to 250 nM; on CDK4/CCND3 (setting [7]) it was 25 to 250 nM; at CDK2/CCNE1 (setting [8]) it was under 25 nM.
In the case of `CS(=O)(=O)N1CCC(Nc2cc3c(C#Cc4ccc(C#N)cc4)nccc3cn2)CC1` [Ex 251, 4-((7-((1-(methylsulfonyl)piperidin-4-yl)amino)-2,6-naphthyridin-1-yl)ethynyl)benzonitrile], the IC50 on CDK1/CCNB1 (setting [1]) is over 250 nM; at CDK6/CCND1 (setting [6]), 25 to 250 nM; on CDK4/CCND3 (<25 nM, read-out: CDK4/CCND IC50 <25 nM), under 25 nM; on CDK2/CCNE1 (setting [8]), under 25 nM.
Turning to `O=C(O)c1ccc(Nc2cc3c(C4=CCCCC4)nccc3cn2)cc1` [Ex 253, 4-((5-(cyclohex-1-en-1-yl)-2,6-naphthyridin-3-yl)amino)benzoic acid], the IC50 at CDK1/CCNB1 (setting [1]) was over 250 nM; on CDK6/CCND1 (setting [6]), 25 to 250 nM; on CDK4/CCND3 (setting [7]) it was 25 to 250 nM; on CDK2/CCNE1 (setting [8]), under 25 nM.
With `Cc1c(-c2nccc3cnc(Nc4ccc(S(C)(=O)=O)cc4)cc23)ccc2c1cnn2CCO` [Ex 267, 2-(4-methyl-5-(7-((4-(methylsulfonyl)phenyl)amino)-2,6-naphthyridin-1-yl)-1H-indazol-1-yl)ethan-1-ol], the IC50 was 25 to 250 nM at CDK1/CCNB1 (25-250 nM marked x, read-out: CDK1/CCNB IC50 25-250 nM); 25 to 250 nM at CDK6/CCND1 (setting [6]); 25 to 250 nM at CDK4/CCND3 (setting [7]); under 25 nM at CDK2/CCNE1 (setting [8]).
